What all share (assay type): cell-based
Experiment [1] concerns LL29 cells (primary human fibroblasts derived from IPF patients), α-smooth muscle actin. As to the kind of experiment: Inhibition of the fibrotic process: αSMA staining in TGF-β1 treated primary human fibroblasts from IPF patients (LL29 cells). The conditions noted are these: Fibroblast; for EC50: 96 h, LL29 cells, TGF-β1 20 ng/mL, 4 days, % αSMA positive cells; for inhibition at 10 µM: read-out: percent inhibition at 10 μM. On the procedure:
Representative compounds were screened using primary human fibroblasts (derived from IPF patients) treated with TGF-β1 to determine their ability to inhibit the fibrotic process.
LL29 cells are plated at 1,500 cells/well in 80 μL/well F12 medium supplemented with 1% Fetal Bovine Serum. […] Wells treated with TGF-β1 and containing DMSO were used as controls. […] Following incubation for 4 days, SYTOX green nucleic acid stain (Life Technologies [Thermo Fisher Scientific]) was added to the wells at a final concentration of 1 μM and incubated at room temperature for 30 min.

A further experiment relates to IL-6 in THP-1 cells. The experiment is described as follows: IL-6 inhibition in LPS-stimulated THP-1 human monocyte cells (HTRF). As to conditions: for EC50: IL-6 inhibition, LPS-stimulated THP-1 cells, HTRF, 10-point dose-response starting from 10 μM; for inhibition at 10 µM: THP-1, read-out: percentage in parentheses beside EC50 >10. How it is done: Compound Screening: THP-1 cells were cultured in basal media with 1% FBS for 24 hours before the start of the assay. […] THP-1 cells were plated at 5000 cells/well in the 384-well plates and incubated at 37° C. for 2 h. 500 ng/mL of LPS was added after 2 hours and cells were incubated for another 22 hours at 37° C. Plates were spun in a centrifuge for 1 minute at […] and a mixture of anti-IL6 XL665, and anti-IL6 Cryptate diluted in reconstitution buffer (Cisbio Inc.) was added to each well. Following incubation for 3 hrs at room temperature, Homogeneous Time-Resolved Fluorescence (HTRF) was measured using the Envision (Perkin Elmer) at 665 nm and […]. The ratio of fluorescence at 665 nm to 620 nm was used as a readout for IL6 quantification. All samples were processed in duplicate. Readings were normalized to DMSO treated cells and normalized activities were utilized for EC50 calculations using the dose-response log (inhibitor) vs. response variable slope (four parameters) nonlinear regression feature available in GraphPad Prism 5.0 (or Dotmatics).

The subject of experiment [2] is Wnt activity (Sp5-Luc reporter, TCF/LEF binding sites) in SW480 colon carcinoma cells. The experiment is described as follows: Wnt activity screening assay: Sp5-Luc reporter gene assay in SW480 cells. As to conditions: Homo sapiens; for EC50: Sp5-Luc reporter, SW480 cells, overnight incubation; for inhibition at 10 µM: SW480, read-out: percent inhibition at 10 μM. An excerpt: The screening assay for Wnt activity is described as follows. Reporter cell lines can be generated by stably transducing cancer cell lines (e.g., colon cancer) or primary cells (e.g., IEC-6 intestinal cells) with a lentiviral construct that includes a Wnt-responsive promoter driving expression of the firefly luciferase gene.
SW480 colon carcinoma cells were transduced with a lentiviral vector expressing luciferase with a human Sp5 promoter consisting of a sequence of eight TCF/LEF binding sites. SW480 cells stably expressing the Sp5-Luc reporter gene and a hygromycin resistance gene were selected by treatment with 150 μg/mL of hygromycin for 7 days. These stably transduced SW480 cells were expanded in cell culture and used for all further screening activities. […] For Sp5-Luc reporter gene assays, the cells were plated at 4,000 cells/well in 384-well plates with medium containing 1% fetal bovine serum and incubated overnight at 37° C. and 5% CO2. Following incubation, 20 μl of BrightGlo luminescence reagent (Promega) was added to each well of the 384-well assay plates. The plates were placed on an orbital shaker for 2 min and then luminescence was quantified using the Envision (Perkin Elmer) plate reader. Readings were normalized to DMSO only treated cells, and normalized activities were utilized for EC50 calculations using the dose-response log (inhibitor) vs. response variable slope (four parameters) nonlinear regression feature available in GraphPad Prism 5.0 (or Dotmatics).
In general terms: A reporter such as luciferase makes a cellular process visible.

The subject of the next experiment is SW480 colon cancer cells. The experiment is described as follows: Cell viability assay (CellTiter-Blue) in SW480 colon cancer cells. The conditions noted are these: Homo sapiens; for EC50: 96 h, SW480 cell viability, four days, CellTiter-Blue; for inhibition at 10 µM: SW480, read-out: percent inhibition at 10 μM. How it is done:
Representative compounds were screened using the following assay procedure to assess the effect on cell viability as described below.
Approximately 2×10^3 SW480 colon cancer cells were seeded into each well and allowed to incubate in the presence or absence of compound for four days at 37° C./5% CO2. Eight replicates of DMSO-treated cells served as controls and cells treated with compound were performed in duplicate.
After incubation, 20 μL of CellTiter-Blue (Promega) was added to each well allowed to incubate for approximately 3 hours. This reagent was a buffered solution which contains resazurin, metabolically active cells were able to reduce rezarurin (blue) into resorufin (pink) which was highly fluorescent. This measured fluorescence was used as a readout for cell viability.
On the technique in general: Resazurin is reduced to fluorescent resorufin, in cell work by metabolically active cells.

In general, EC50 refers to the midpoint of the concentration-response curve. Read a high EC50 as a need for much substance. `CC(C)(C)CC(=O)Nc1cncc(-c2cnc3[nH]nc(-c4cc5c(-c6ccc(F)cc6)nccc5[nH]4)c3c2)c1` [Compound 44, N-(5-(3-(4-(4-Fluorophenyl)-1H-pyrrolo[3,2-c]pyridin-2-yl)-1H-pyrazolo[3,4-b]pyridin-5-yl)pyridin-3-yl)-3,3-dimethylbutanamide]: the EC50 was 0.315 µM in experiment [1], 2.04 µM in the experiment on IL-6 in THP-1 cells, 0.986 µM in experiment [2] and 0.7 µM in the experiment on SW480 colon cancer cells.

Take `c1ccc(-c2cnc3[nH]nc(-c4cc5cnccc5[nH]4)c3c2)nc1` [Compound 280, 5-(Pyridin-2-yl)-3-(1H-pyrrolo[3,2-c]pyridin-2-yl)-1H-pyrazolo[3,4-b]pyridine]: the EC50 in experiment [1] stood at 3.87 µM; in the experiment on IL-6 in THP-1 cells, 3.69 µM; in experiment [2], 3.13 µM; in the experiment with SW480 colon cancer cells it was 1.14 µM.

For `CS(=O)(=O)NCc1cc(F)cc(-c2nccc3[nH]c(-c4n[nH]c5ncc(-c6cncc(CNCc7ccccc7)c6)cc45)cc23)c1` [Compound 500, N-(3-(2-(5-(5-((Benzylamino)methyl)pyridin-3-yl)-1H-pyrazolo[3,4-b]pyridin-3-yl)-1H-pyrrolo[3,2-c]pyridin-4-yl)-5-fluorobenzyl)methanesulfonamide], the concentration giving a half-maximal response (EC50) (in experiment [1]; in the experiment with IL-6 in THP-1 cells; in experiment [2]; in the experiment with SW480 colon cancer cells) was over 10 µM in each case. Also, the inhibition at 10 µM in experiment [1] was 18.3%; with IL-6 in THP-1 cells it was 31.3%; in experiment [2] it was 19.1%; with SW480 colon cancer cells, 23.4%.

Consider `CN1CCN(c2nccc3[nH]c(-c4n[nH]c5ncc(-c6cncc(CN7CCC(F)(F)C7)c6)cc45)cc23)CC1` [Compound 250, 5-(5-((3,3-Difluoropyrrolidin-1-yl)methyl)pyridin-3-yl)-3-(4-(4-methylpiperazin-1-yl)-1H-pyrrolo[3,2-c]pyridin-2-yl)-1H-pyrazolo[3,4-b]pyridine], for which the EC50 in experiment [1] was 4.94 µM; in the experiment on IL-6 in THP-1 cells, 0.4 µM; in experiment [2] it was 3.65 µM; with SW480 colon cancer cells it was 3.15 µM.

With `c1cc2[nH]c(-c3n[nH]c4ncc(-c5cncc(OC6CCCCC6)c5)cc34)cc2c(N2CCCCC2)n1` [Compound 607, 5-(5-(Cyclohexyloxy)pyridin-3-yl)-3-(4-(piperidin-1-yl)-1H-pyrrolo[3,2-c]pyridin-2-yl)-1H-pyrazolo[3,4-b]pyridine], the EC50 in experiment [1] worked out at 1.99 µM; with IL-6 in THP-1 cells, 7.28 µM; in experiment [2] it was 3.98 µM; in the experiment on SW480 colon cancer cells, 3.54 µM.

In the case of `CC(C)(C)C(=O)Nc1cncc(-c2cnc3[nH]nc(-c4cc5c(N6CCCCC6)nccc5[nH]4)c3c2)c1` [Compound 176, N-(5-(3-(4-(Piperidin-1-yl)-1H-pyrrolo[3,2-c]pyridin-2-yl)-1H-pyrazolo[3,4-b]pyridin-5-yl)pyridin-3-yl)pivalamide], the EC50 (in experiment [1]; in the experiment with IL-6 in THP-1 cells; in experiment [2]; in the experiment on SW480 colon cancer cells) was over 10 µM each time. Further, the inhibition at 10 µM in experiment [1] is 28.2%; with IL-6 in THP-1 cells it was 25.9%; in experiment [2], 18.2%; with SW480 colon cancer cells, 5.2%.

Take `Cc1ccncc1-c1cnc2[nH]nc(-c3cc4c(-c5ccc(F)cc5)nccc4[nH]3)c2c1` [Compound 33, 3-(4-(4-Fluorophenyl)-1H-pyrrolo[3,2-c]pyridin-2-yl)-5-(4-methylpyridin-3-yl)-1H-pyrazolo[3,4-b]pyridine]: the EC50 in experiment [1] is 0.553 µM; in the experiment with IL-6 in THP-1 cells, over 10 µM; in experiment [2] it was over 10 µM; with SW480 colon cancer cells, 1.5 µM. The inhibition at 10 µM in the experiment on IL-6 in THP-1 cells is 16.4%; in experiment [2] it was 46.5%.

As for `Fc1cccc(-c2nccc3[nH]c(-c4n[nH]c5ncc(-c6ccccn6)cc45)cc23)c1` [Compound 28, 3-(4-(3-Fluorophenyl)-1H-pyrrolo[3,2-c]pyridin-2-yl)-5-(pyridin-2-yl)-1H-pyrazolo[3,4-b]pyridine], the EC50 stood at 0.752 µM in experiment [1], 3.46 µM in the experiment with IL-6 in THP-1 cells, 1.29 µM in experiment [2] and 0.519 µM in the experiment on SW480 colon cancer cells.

`Oc1cncc(-c2cnc3[nH]nc(-c4cc5c(-c6cccs6)nccc5[nH]4)c3c2)c1` [Compound 709, 5-(3-(4-(Thiophen-2-yl)-1H-pyrrolo[3,2-c]pyridin-2-yl)-1H-pyrazolo[3,4-b]pyridin-5-yl)pyridin-3-ol]: the EC50 was 0.289 µM in experiment [1], over 10 µM in the experiment on IL-6 in THP-1 cells, 0.768 µM in experiment [2] and 2.48 µM with SW480 colon cancer cells. For the same compound, the inhibition at 10 µM with IL-6 in THP-1 cells came to 48.9%.

For `CN1CCN(c2nccc3[nH]c(-c4n[nH]c5ncc(-c6cncnc6)cc45)cc23)CC1` [Compound 251, 3-(4-(4-Methylpiperazin-1-yl)-1H-pyrrolo[3,2-c]pyridin-2-yl)-5-(pyrimidin-5-yl)-1H-pyrazolo[3,4-b]pyridine], the EC50 (in experiment [1]; with IL-6 in THP-1 cells; in experiment [2]; in the experiment on SW480 colon cancer cells) was over 10 µM in each case. Also, the inhibition at 10 µM was 24.7% in experiment [1], 35.7% in the experiment with IL-6 in THP-1 cells, 17.8% in experiment [2] and 8.3% with SW480 colon cancer cells.

For `Cc1ccncc1-c1cnc2[nH]nc(-c3cc4c(-c5cccs5)nccc4[nH]3)c2c1` [Compound 341, 5-(4-Methylpyridin-3-yl)-3-(4-(thiophen-2-yl)-1H-pyrrolo[3,2-c]pyridin-2-yl)-1H-pyrazolo[3,4-b]pyridine], the EC50 in experiment [1] is 0.33 µM; in the experiment on IL-6 in THP-1 cells, 5.11 µM; in experiment [2], 1.65 µM; in the experiment with SW480 colon cancer cells it was 1.08 µM.

Turning to `Fc1cccc(-c2nccc3[nH]c(-c4n[nH]c5ncc(-c6cncc(CN7CCCCC7)c6)cc45)cc23)c1` [Compound 15, 3-(4-(3-Fluorophenyl)-1H-pyrrolo[3,2-c]pyridin-2-yl)-5-(5-(piperidin-1-ylmethyl)pyridin-3-yl)-1H-pyrazolo[3,4-b]pyridine], the EC50 is 0.66 µM in experiment [1], 4.78 µM in the experiment with IL-6 in THP-1 cells, 1.82 µM in experiment [2] and 0.856 µM with SW480 colon cancer cells.

Regarding `CN(C)Cc1cncc(-c2cnc3[nH]nc(-c4cc5c(N6CCCCC6)nccc5[nH]4)c3c2)c1` [Compound 181, N,N-Dimethyl-1-(5-(3-(4-(piperidin-1-yl)-1H-pyrrolo[3,2-c]pyridin-2-yl)-1H-pyrazolo[3,4-b]pyridin-5-yl)pyridin-3-yl)methanamine], the EC50 in experiment [1] is 9.71 µM; in the experiment with IL-6 in THP-1 cells, over 10 µM; in experiment [2] it was over 10 µM; with SW480 colon cancer cells it was 7.76 µM. Moreover, the inhibition at 10 µM in the experiment on IL-6 in THP-1 cells worked out at 41.5%; in experiment [2], 20.3%.

On to `FC1(F)CCN(Cc2cncc(-c3cnc4[nH]nc(-c5cc6c(-c7ccncc7)nccc6[nH]5)c4c3)c2)C1` [Compound 138, 5-(5-((3,3-Difluoropyrrolidin-1-yl)methyl)pyridin-3-yl)-3-(4-(pyridin-4-yl)-1H-pyrrolo[3,2-c]pyridin-2-yl)-1H-pyrazolo[3,4-b]pyridine], for which the EC50 was 2.22 µM in experiment [1], 3.63 µM with IL-6 in THP-1 cells, 1.15 µM in experiment [2] and over 10 µM with SW480 colon cancer cells. In addition, the inhibition at 10 µM in the experiment with SW480 colon cancer cells worked out at 14.3%.
